Values joined by “and” are separate entries in the source; they are usually repeats but may differ in a detail not shown here. Equal values may be shown once. Read-outs that look alike come from different tables or passages of the source.
How the values were obtained:
HeLa cells = experiment: MTT cell viability assay, HeLa cells; type: cell-based, human; details: for % survival: 12 h, MTT
Protocol: (§1) The 1321N1 astrocytoma (hP2Y6R-overexpressing) and HeLa (non-transfected) cell lines were cultured in Dulbecco’s modified Eagle’s medium (DMEM, HyClone, Logan, UT, USA) supplemented with 5% heat-inactivated fetal bovine serum (FBS, HyClone, UT, USA), 100 U/mL penicillin, and 100 µg/mL streptomycin in 5% CO2 at 37 °C. The cell viability was determined using an MTT kit (Sigma, St. Louis, MO, USA) according to the manufacturer’s instructions. Briefly, 1 × 10^4 cells were seeded in triplicate in 96-well plates. The hP2Y6R-astrocytoma and HeLa cells were treated with a P2Y6R agonist and antagonists at a range of concentrations and incubated for 12 h. The cell viability was measured at 490 nm using a SpectraMax-M5 Spectrometer (Molecular Devices, San Jose, CA, USA).

[1] = test system: hP2Y6R-1321N1 human astrocytoma cells; experiment: MTT cell viability assay, hP2Y6R-1321N1 astrocytoma cells; type: cell-based; details: for % survival: P2Y6R-astrocytoma, 12 h, MTT
Protocol: as §1

P2Y6R = P2Y6R agonist; no reference given; read-out: EC50 in PLC activation; cited from earlier work
hP2Y6R = target: T1, hP2Y6R (Homo sapiens, UniProt Q15077); experiment: UDP (100 nM)-induced Ca2+ mobilization in hP2Y6R stably transfected 1321N1 astrocytoma cells; type: cell-based; details: UDP 100 nM; 3–4 independent triplicate determinations; read-out: IC50, hP2Y6R (Mean ± SEM)
T1 construct: expressed in transfected cells
T1 sequence (Q15077 whole entry): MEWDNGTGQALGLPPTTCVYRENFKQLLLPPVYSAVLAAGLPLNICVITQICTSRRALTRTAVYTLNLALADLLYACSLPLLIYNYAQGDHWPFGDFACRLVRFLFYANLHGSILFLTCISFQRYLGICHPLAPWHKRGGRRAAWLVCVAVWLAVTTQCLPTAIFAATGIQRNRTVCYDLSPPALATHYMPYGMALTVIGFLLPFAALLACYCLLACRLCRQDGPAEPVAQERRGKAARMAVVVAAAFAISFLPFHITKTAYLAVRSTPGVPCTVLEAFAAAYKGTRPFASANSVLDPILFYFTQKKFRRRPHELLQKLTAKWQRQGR
Protocol: To screen for P2Y6R antagonist activity, PLC-mediated calcium mobilization assays were carried out using the recombinant human P2Y6R stably expressed in 1321N1 astrocytoma cells (hP2Y6R-1321N1) according to the previously published method. Briefly, the hP2Y6R-1321N1 cells were seeded on 96-well black plates and incubated overnight. The antagonists were pretreated along with the FLIPR dye (Calcium 6 assay kit, Molecular Devices, San Jose, CA, USA) containing 5 mM probenecid for 45 min, prior to agonist addition followed by an immediate intracellular Ca^2+ measurement. […] Here, probenecid was used as an organic anion transporter inhibitor to prevent the efflux of the dye into the extracellular environment. During incubation, the membrane permeable dye enters the cytoplasm and cleaves the acetoxymethyl protection to enable Ca^2+ binding. When the P2Y6R was activated by UDP, the increased calcium concentration was directly measured by intracellular changes in the fluorescence intensity with a Fluorescent Imaging Plate Reader (FLIPR^TETRA, Molecular Devices, San Jose, CA, USA).

other P2YRs = details: at high µM concentrations; ref [29],[43]; cited from earlier work
α2A [2] = target: T2, α2A (Homo sapiens, UniProt P08913); design: method as in Jung et al., 2021 and 2022 [30],[40]; details: PDSP; ref Jung et al., 2021 and 2022 [30],[40]; cited from earlier work
T2 construct: NIMH Psychoactive Drug Screening Program (PDSP)
T2 sequence (P08913 1-465): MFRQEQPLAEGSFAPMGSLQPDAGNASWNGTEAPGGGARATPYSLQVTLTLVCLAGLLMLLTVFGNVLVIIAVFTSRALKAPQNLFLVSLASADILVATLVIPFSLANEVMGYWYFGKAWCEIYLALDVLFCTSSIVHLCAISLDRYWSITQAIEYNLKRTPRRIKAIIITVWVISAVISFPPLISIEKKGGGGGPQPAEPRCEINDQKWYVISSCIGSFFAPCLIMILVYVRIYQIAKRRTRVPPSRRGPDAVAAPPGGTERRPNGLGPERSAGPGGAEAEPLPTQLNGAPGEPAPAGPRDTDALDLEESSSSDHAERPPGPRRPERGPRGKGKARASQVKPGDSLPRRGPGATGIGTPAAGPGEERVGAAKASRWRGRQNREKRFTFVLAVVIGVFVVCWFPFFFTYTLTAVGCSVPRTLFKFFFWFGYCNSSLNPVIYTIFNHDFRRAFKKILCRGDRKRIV

mP2Y6 = test system: mP2Y6; design: method as in PMID 37078976; details: Figure 1; ref [33]; cited from earlier work
[3] = test system: 45 target sites (receptors, channels, and transporters); experiment: PDSP off-target binding screen at 45 target sites; design: species or system human; details: PDSP binding assays
Description: (§2) Table S2. Off-target screening (to replace table later). We thank Dr. Bryan L. Roth (Univ. North Carolina at Chapel Hill) and National Institute of Mental Health's Psychoactive Drug Screening Program (Contract # HHSN-271-2008-00025-C) for screening data. Reference: Besnard et al.
(§3) Procedures: https://pdsp.unc.edu/pdspweb/content/UNC-CH%20Protocol%20Book.pdf […]
(§4) nucleosides were found at the following sites (human unless noted): 5HT1A, 5HT1B, 5HT1D, […]
(§5) β3, BZP rat brain site, D1, D2, D3, D4, D5, GABAA, H1, H2, H3, H4, M1, M2, M5, δ-opioid receptor (DOR), κ-opioid receptor (KOR), μ-opioid receptor (MOR), σ1, σ2, DAT, NET, SERT. Ki values […]
(§6) Compound # PDSP # Receptor LogKi Ki (nM)

α2C = target: α2C; design: method as in Jung et al., 2021 and 2022 [30],[40]; details: PDSP; ref Jung et al., 2021 and 2022 [30],[40]; cited from earlier work
µ-opioid receptor (MOR) = target: µ-opioid receptor (MOR); design: method as in Jung et al., 2021 and 2022 [30],[40]; details: PDSP; ref Jung et al., 2021 and 2022 [30],[40]; cited from earlier work
rP2Y6 = details: Figure 1; ref [33]; cited from earlier work
α2B = target: T3, α2B (Homo sapiens, UniProt P18089); experiment: PDSP binding assay, α2B; details: mean, n = 2
T3 construct: NIMH Psychoactive Drug Screening Program (PDSP)
T3 sequence (P18089 1-450): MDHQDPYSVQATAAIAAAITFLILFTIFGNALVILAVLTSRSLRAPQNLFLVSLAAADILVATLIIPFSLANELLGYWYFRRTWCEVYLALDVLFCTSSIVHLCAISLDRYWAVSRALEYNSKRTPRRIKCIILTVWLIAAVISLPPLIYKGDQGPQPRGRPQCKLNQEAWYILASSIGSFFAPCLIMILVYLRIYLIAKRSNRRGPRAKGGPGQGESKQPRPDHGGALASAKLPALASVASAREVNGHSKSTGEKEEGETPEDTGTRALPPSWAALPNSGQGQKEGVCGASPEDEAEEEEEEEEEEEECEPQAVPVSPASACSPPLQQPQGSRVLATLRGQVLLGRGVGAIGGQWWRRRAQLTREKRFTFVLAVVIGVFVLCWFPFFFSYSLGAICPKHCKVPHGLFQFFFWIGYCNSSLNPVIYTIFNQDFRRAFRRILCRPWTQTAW
Description: as §2, §3, §4, §5, §6

hP2Y14R = target: T4, hP2Y14R (Homo sapiens, UniProt Q15391); experiment: whole-cell binding of fluorescent antagonist MRS4174 in CHO-hP2Y14R cells (flow cytometry)
T4 construct: expressed in transfected cells
T4 sequence (Q15391 1-338): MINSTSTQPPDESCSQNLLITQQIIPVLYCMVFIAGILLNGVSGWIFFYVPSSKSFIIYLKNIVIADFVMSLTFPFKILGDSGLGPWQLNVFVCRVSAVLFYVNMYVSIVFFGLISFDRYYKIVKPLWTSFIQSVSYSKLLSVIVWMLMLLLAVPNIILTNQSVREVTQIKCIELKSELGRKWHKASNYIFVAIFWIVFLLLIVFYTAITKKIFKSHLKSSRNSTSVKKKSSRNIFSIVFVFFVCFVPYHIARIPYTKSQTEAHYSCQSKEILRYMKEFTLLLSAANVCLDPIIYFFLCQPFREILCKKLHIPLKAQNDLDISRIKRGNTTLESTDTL

5-HT1D = target: T5, 5-HT1D (Homo sapiens, UniProt P28221); experiment: PDSP binding assay, 5-HT1D
T5 construct: NIMH Psychoactive Drug Screening Program (PDSP)
T5 sequence (P28221 whole entry): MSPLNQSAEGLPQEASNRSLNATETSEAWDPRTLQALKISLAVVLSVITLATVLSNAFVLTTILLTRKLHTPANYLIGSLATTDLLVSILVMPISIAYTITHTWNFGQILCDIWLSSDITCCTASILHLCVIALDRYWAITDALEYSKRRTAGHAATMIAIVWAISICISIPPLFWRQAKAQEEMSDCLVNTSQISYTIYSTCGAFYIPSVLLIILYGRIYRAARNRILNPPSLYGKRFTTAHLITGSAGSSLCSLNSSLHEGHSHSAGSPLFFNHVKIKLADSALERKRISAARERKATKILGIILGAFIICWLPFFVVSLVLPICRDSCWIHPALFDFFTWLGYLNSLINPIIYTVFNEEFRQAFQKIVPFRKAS
Description: as §2, §3, §4, §5, §6

H1 = target: T6, H1 (Homo sapiens, UniProt P35367); experiment: PDSP binding assay, H1
T6 construct: NIMH Psychoactive Drug Screening Program (PDSP)
T6 sequence (P35367 whole entry): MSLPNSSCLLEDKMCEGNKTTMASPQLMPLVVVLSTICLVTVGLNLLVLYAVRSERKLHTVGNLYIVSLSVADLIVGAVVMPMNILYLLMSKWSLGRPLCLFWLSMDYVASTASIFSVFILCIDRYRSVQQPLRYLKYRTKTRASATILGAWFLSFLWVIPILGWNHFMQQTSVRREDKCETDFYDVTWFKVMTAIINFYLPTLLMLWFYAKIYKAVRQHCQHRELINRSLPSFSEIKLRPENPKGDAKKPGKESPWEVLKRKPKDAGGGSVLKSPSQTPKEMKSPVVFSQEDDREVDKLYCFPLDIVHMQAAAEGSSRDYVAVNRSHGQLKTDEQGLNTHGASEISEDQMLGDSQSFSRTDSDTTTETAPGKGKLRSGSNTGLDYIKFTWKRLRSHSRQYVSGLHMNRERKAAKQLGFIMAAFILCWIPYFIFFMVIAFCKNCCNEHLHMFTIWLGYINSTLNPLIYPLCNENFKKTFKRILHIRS
Description: as §2, §3, §4, §5, §6

D1 = target: T7, D1 (Homo sapiens, UniProt P21728); experiment: PDSP binding assay, D1
T7 construct: NIMH Psychoactive Drug Screening Program (PDSP)
T7 sequence (P21728 whole entry): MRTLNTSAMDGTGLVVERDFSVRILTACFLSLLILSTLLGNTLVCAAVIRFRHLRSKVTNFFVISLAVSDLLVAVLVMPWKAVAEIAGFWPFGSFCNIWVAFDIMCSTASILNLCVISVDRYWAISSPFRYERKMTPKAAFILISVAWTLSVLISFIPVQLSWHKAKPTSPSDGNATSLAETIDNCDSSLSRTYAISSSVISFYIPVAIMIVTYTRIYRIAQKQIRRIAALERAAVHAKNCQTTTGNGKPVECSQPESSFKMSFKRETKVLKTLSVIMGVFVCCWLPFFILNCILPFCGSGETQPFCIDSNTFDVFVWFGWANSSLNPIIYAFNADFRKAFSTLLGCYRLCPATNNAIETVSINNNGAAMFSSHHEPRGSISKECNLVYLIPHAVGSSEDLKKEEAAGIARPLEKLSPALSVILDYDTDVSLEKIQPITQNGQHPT
Description: as §2, §3, §4, §5, §6

D5 = target: T8, D5 (Homo sapiens, UniProt P21918); experiment: PDSP binding assay, D5
T8 construct: NIMH Psychoactive Drug Screening Program (PDSP)
T8 sequence (P21918 whole entry): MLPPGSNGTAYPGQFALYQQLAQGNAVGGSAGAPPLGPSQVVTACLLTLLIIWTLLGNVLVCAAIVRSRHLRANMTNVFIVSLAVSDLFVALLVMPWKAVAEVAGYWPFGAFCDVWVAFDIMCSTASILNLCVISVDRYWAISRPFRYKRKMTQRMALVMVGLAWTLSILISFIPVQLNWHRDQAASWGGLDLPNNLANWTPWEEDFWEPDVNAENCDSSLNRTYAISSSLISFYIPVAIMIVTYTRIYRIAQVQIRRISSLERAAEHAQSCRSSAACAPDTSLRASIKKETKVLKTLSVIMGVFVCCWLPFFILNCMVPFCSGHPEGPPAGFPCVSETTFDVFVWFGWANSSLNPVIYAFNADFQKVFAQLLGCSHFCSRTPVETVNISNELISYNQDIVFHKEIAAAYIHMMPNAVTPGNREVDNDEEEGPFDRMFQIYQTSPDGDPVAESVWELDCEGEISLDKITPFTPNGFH
Description: as §2, §3, §4, §5, §6

α2A [4] = target: T2, α2A; experiment: PDSP binding assay, α2A
Description: as §2, §3, §4, §5, §6

O=c1[nH]c(=O)n([C@@H]2O[C@H](COP(=O)(O)OP(=O)(O)O)[C@@H](O)[C@H]2O)cc1I [MRS2693, 5-iodouridine-5′-O-diphosphate, reference compound]
% survival (HeLa cells; 1 µM): 105%
% survival (HeLa cells; 5 µM): 106%
% survival (HeLa cells; 10 µM): 104%
% survival ([1]; 1 µM): 98%
% survival ([1]; 5 µM): 100%
% survival ([1]; 10 µM): 101%
effect on viability ([1]; astrocytoma cells, ≤10 µM, 12 h exposure): no significant effect
EC50 (P2Y6R): 15 nM

O=c1ccn([C@@H]2O[C@H](COP(=O)(O)OP(=O)(O)O)[C@@H](O)[C@H]2O)c(=O)[nH]1 [UDP, uridine 5′-diphosphate]
EC50 (P2Y6R): 13 nM

CC[Si](C#Cc1ccc2c(c1)C=C([N+](=O)[O-])C(C(F)(F)F)O2)(CC)CC (centres unmarked) [Compound 13]
IC50 (hP2Y6R): 604 ± 239 nM
inhibition at most other P2YRs (other P2YRs): minor
Ki (α2A [2]): 2000 nM

O=[N+]([O-])C1=Cc2cc(F)cc(F)c2OC1C(F)(F)F (centres unmarked) [Compound 2b]
% survival (HeLa cells; 0.1 µM): 87%
% survival (HeLa cells; 0.5 µM): 86%
% survival (HeLa cells; 1 µM): 87%
% survival (HeLa cells; 5 µM): 84%
% survival (HeLa cells; 10 µM): 78%
inhibition of viability (HeLa cells; at 10 µM, 12 h exposure): 22%
% survival ([1]; 0.1 µM): 104%
% survival ([1]; 0.5 µM): 104%
% survival ([1]; 1 µM): 105%
% survival ([1]; 5 µM): 98%
% survival ([1]; 10 µM): 88%
inhibition of viability ([1]; hP2Y6R-1321N1 cells, at 10 µM, 12 h exposure): 12%
IC50 (mP2Y6): 17800 nM
off-target interactions at 45 target sites [3]: no off-target interactions and none

O=C(O)c1ccc(C#Cc2ccc3c(c2)C=C([N+](=O)[O-])C(C(F)(F)F)O3)cc1 (centres unmarked) [Compound 17]
inhibition at most other P2YRs (other P2YRs): minor
Ki (α2C): 2600 nM
Ki (µ-opioid receptor (MOR)): 4200 nM

S=C=Nc1cccc(NC(=S)NCCCCNC(=S)Nc2cccc(N=C=S)c2)c1 [Compound 1]
IC50 (rP2Y6): 98 nM

CC(C)(C)OC(=O)NCCCCC#Cc1ccc2c(c1)C=C([N+](=O)[O-])C(C(F)(F)F)O2 (centres unmarked) [Compound 24, tert-Butyl (6-(3-nitro-2-(trifluoromethyl)-2H-chromen-6-yl)hex-5-yn-1-yl)carbamate]
IC50 (hP2Y6R): 568 ± 163 nM
Ki (α2B): 460 nM
IC50 (hP2Y14R; CHO-hP2Y14, competitive binding, flow cytometer): 5600 ± 700 nM
fold selective compared to the hP2Y14R (hP2Y14R; hP2Y6R vs hP2Y14R): 10 fold
Ki (5-HT1D; PDSP, mean, n = 2, read-out: Ki, 5-HT1D): 3200 nM
Ki (5-HT1D; Table S2, single determinations, read-out: Ki (nM), 5-HT1D): 3260 nM and 3040 nM
Ki (H1; PDSP, mean, n = 2, read-out: Ki, H1): 1000 nM
Ki (H1; Table S2, single determinations, read-out: Ki (nM), H1): 631 nM and 1430 nM
Ki (D1; PDSP, mean, n = 2, read-out: Ki, D1): 1900 nM
Ki (D1; Table S2, single determination, read-out: Ki (nM), D1): 1600 nM
Ki (D5; PDSP, mean, n = 2, read-out: Ki, D5): 2400 nM
Ki (D5; Table S2, single determinations, read-out: Ki (nM), D5): 1360 nM and 3420 nM
Ki (α2A [4]; PDSP, mean, n = 2, read-out: Ki, α2A): 160 nM
Ki (α2A [4]; Table S2, single determinations, read-out: Ki (nM), Alpha2A): 148 nM and 168 nM

Source: article PMC11352859, “Functionalized Congeners of 2H-Chromene P2Y6 Receptor Antagonists” (Cells, 2024)
